Literature values as cited in patent US20150157714A1, “IMPLEMENTATION OF NON-PATHOGENIC BIOLUMINESCENT BACTERIA AS A SUB-MICRON LIGHT EMITTING SOURCE FOR PHOTO-DYNAMIC THERAPY IN THE LUNGS” (priority 2013, published 2015).

Columns and labels:
[1] = for Spectral Absorption Ranges and Peaks: absorption spectra wavelengths for photochemical interactions; for absorption peak: visible light absorption peaks named in text
[2] = FIG. 1, representative spectral curve
[3] = system: methicillin-resistant Staphylococcus aureus (MRSA); settings: with 632.8 nm light
[4] = system: multi-drug resistant Pseudomonas aeruginosa (Gram −) isolates; settings: 60 different multi-drug resistant isolates
[5] = system: Multidrug-resistant Pseudomonas aeruginosa; settings: 635 nm light

Molecule | Spectral Absorption Ranges and Peaks [1] | other results
Sudan Red | 450-590 nm | –
Phthalocyanine-4 | 670 nm | –
Azure B | 580+ nm | –
O=C1/C(=C2\Nc3ccc(S(=O)(=O)[O-])cc3C2=O)Nc2ccc(S(=O)(=O)[O-])cc21.[Na+].[Na+] [Indigo Carmine] | 608 nm | –
Acid Fuchsin | 530-560 nm | –
CCOC(=O)C1=Cc2c3nc(cc4nc(cc5[n-]c(cc6[n-]c2c(C)c6CC)c(C)c5CC)C(C)=C4CC)[C@@H](C)[C@]13CC.[Cl-].[Cl-].[Sn] (racemic) [Tin etiopurpurin] | 660 nm | –
Nickel 5,10-bis-acrylate etioporphyrin I | 580 nm | –
Basic Fuchsin | 520-570 nm | –
Mono-N-Aspartyl Chlorin e6 | 664 nm | –
NCC(=O)CCC(=O)O [ALA] | 635 nm | –
CC(C)=CCC/C(C)=C/C=C/C(C)=C/C=C/C(C)=C/C=C/C=C(C)/C=C/C=C(C)/C=C/C=C(\C)CCC=C(C)C [Lycopene] | 530 nm | –
CC(=O)Nc1ccc2nc3c4ccccc4c(=N)cc-3oc2c1.Cl [Darrow Red] | 450-550 nm | –
Verteporfin | 690 nm | –
Cc1cc2nc3ccc(N(C)C)cc3nc2cc1N.Cl [Neutral Red] | 480-570 nm | –
CN(C)c1ccc(C(=C2C=CC(=[N+](C)C)C=C2)c2c(O)c(S(=O)(=O)[O-])cc3cc(S(=O)(=O)[O-])ccc23)cc1.[Na+] [Lissamine green] | 633 nm | –
O=C([O-])c1c(Cl)c(Cl)c(Cl)c(Cl)c1-c1c2cc(Br)c(=O)c(Br)c-2oc2c(Br)c([O-])c(Br)cc12.[Na+].[Na+] [Phloxine B] | 520+ nm | –
C=Cc1c(C)c2cc3nc(c(CC(=O)N[C@@H](CC(=O)O)C(=O)O)c4[nH]c(cc5nc(cc1[nH]2)C(C)=C5CC)c(C)c4C(=O)O)[C@@H](CCC(=O)O)[C@@H]3C [Talaporfin (LS11, MACE, Npe6), Talaporfin] | 660 nm | –
C=Cc1c(C)c2cc3nc(c(CC(=O)O)c4[nH]c(cc5nc(cc1[nH]2)C(C)=C5CC)c(C)c4C(=O)O)[C@@H](CCC(=O)O)[C@@H]3C [Chlorin e6] | – | absorption peak [1]: 410 nm
Si(IV)-naphthocyanine | – | absorption peak [1]: 773 nm

Molecule | Spectral Absorption Ranges and Peaks [1] | other results
COc1cc(S(=O)(=O)[O-])c(C)cc1N=Nc1c(O)ccc2cc(S(=O)(=O)[O-])ccc12.[Na+].[Na+] [Allura Red AC] | 504 nm | –
O=S(=O)([O-])c1cc(S(=O)(=O)[O-])c2c(N=Nc3ccc(S(=O)(=O)[O-])c4ccccc34)c(O)ccc2c1.[Na+].[Na+].[Na+] [Brilliant Scarlet 4R] | 503 nm | –
Cc1ccccc1/N=N/c1ccc(/N=N/c2c(O)ccc3ccccc23)c(C)c1 [Sudan IV] | 470-580 nm | –
CN(C)c1ccc(C(=C2C=CC(=[N+](C)C)C=C2)c2ccc(N(C)C)cc2)cc1 [Crystal Violet] | 550-610 nm | –
Nc1c(O)c(S(=O)(=O)[O-])c(O)c2c1C(=O)c1ccccc1C2=O.[Na+] [Nuclear Fast Red] | 460-550 nm | –
CN(C)c1ccc(C(=C2C=CC(=[N+](C)C)C=C2)c2ccc([N+](C)(C)C)cc2)cc1.[Cl-].[Cl-] [Methyl Green] | 560+ nm | –
Cc1cc2nc3cc(C)c(N)cc3[n+](-c3ccccc3)c2cc1N.[Cl-] [Safranin O] | 470-550 nm | –
CNc1ccc2nc3ccc(N)cc3[s+]c2c1.[Cl-] [Azure C] | 580-640 nm | –
Silicon phthalocyanine [Silicon phthalocyanine (Pc4)] | 675 nm | –
Taporfin Sodium | 664 nm | –
BPD-ma | 689 nm | –
CC1=C(/C=C/C(C)=C/C=C/C(C)=C/C=C/C=C(C)/C=C/C=C(C)/C=C/C2=C(C)CCCC2(C)C)C(C)(C)CCC1 [Beta carotene] | 470 nm | –
O=C([O-])c1c(Cl)c(Cl)c(Cl)c(Cl)c1-c1c2cc(I)c(=O)c(I)c-2oc2c(I)c([O-])c(I)cc12.[Na+].[Na+] [Rose bengal] | 548 nm | –
CCN(Cc1cccc(S(=O)(=O)[O-])c1)c1ccc(C(=C2C=CC(=[N+](CC)Cc3cccc(S(=O)(=O)[O-])c3)C=C2)c2ccc(O)cc2S(=O)(=O)[O-])cc1.[Na+].[Na+] [Fast Green] | 560+ nm | –
O=S(=O)([O-])c1ccc(/N=N/c2cc(S(=O)(=O)[O-])c3ccccc3c2O)c2ccccc12.[Na+].[Na+] [Chromotrope FB] | 512 nm | –
O=S(=O)([O-])c1ccc(N=Nc2cc(S(=O)(=O)[O-])c3ccccc3c2O)c2ccccc12.[Na+].[Na+] [Carmoisine azorubine] | 515 nm | –
Wild-type Firefly luciferase (FFluc): Wild-type Firefly luciferase from Photinus pyralis, uses D-luciferin, ATP dependent | – | spectral curve runs to wavelength [2]: about 680 nm; spectral curve starts at wavelength [2]: about 460 nm; spectral peak of emitted light [2]: about 557 nm
O=C([O-])C1=NN(c2ccc(S(=O)(=O)[O-])cc2)C(=O)C1N=Nc1ccc(S(=O)(=O)[O-])cc1.[Na+].[Na+].[Na+] (stereo not drawn) [Tartrazine] | 400-460 nm | –
Cc1cc2nc3ccc(N(C)C)cc3[s+]c2cc1N.[Cl-] [Toluidine Blue] | 560+ nm | eradication of MRSA [3]: eradicate; reduction of isolates with PDT [4]: significantly reduced

Molecule | Spectral Absorption Ranges and Peaks [1] | other results
HPPH | 665 nm | –
CN(C)c1ccc2nc3ccc(=[N+](C)C)cc-3sc2c1 [Methylene Blue] | 590+ nm | susceptibility to photosensitizer and light [5]: susceptibility
Cc1cc2nc3c(=O)[nH]c(=O)nc-3n(C[C@H](O)[C@H](O)[C@H](O)COP(=O)([O-])O)c2cc1C.[Na+] [Riboflavin 5′-monophosphate sodium salt] | 441 nm | –
CCOC(=O)C1=Cc2c3nc(cc4nc(cc5[n-]c(cc6[n-]c2c(C)c6CC)c(C)c5CC)C(C)=C4CC)[C@@H](C)[C@]13CC.[Cl-].[Cl-].[Sn] [SnEt2 (Purlytin), SnEt2] | 660 nm | –
Cc1c(C(=O)O)c(O)cc2c1C(=O)c1c(O)c(C3O[C@H](CO)[C@@H](O)[C@H](O)[C@H]3O)c(O)c(O)c1C2=O (stereo in doubt) [Carmine] | 500-570 nm | –
Aniline Blue | 550-620 nm | –
CCN(Cc1cccc(S(=O)(=O)[O-])c1)c1ccc(C(=C2C=CC(=[N+](CC)Cc3cccc(S(=O)(=O)[O-])c3)C=C2)c2ccccc2S(=O)(=O)[O-])cc1.[Na+].[Na+] [Erioglaucine disodium salt] | 629 nm | –
O=C([O-])c1ccccc1-c1c2cc(Br)c(=O)c(Br)c-2oc2c(Br)c([O-])c(Br)cc12.[Na+].[Na+] [Eosin Y] | 490-530 nm | –
Mutated Firefly luciferase S284T: mutated firefly luciferase S284T | – | spectral curve runs to wavelength [2]: about 720 nm; spectral curve starts at wavelength [2]: about 520 nm; spectral peak of emitted light [2]: about 630 nm
Cc1cc(-c2ccc(/N=N/c3c(S(=O)(=O)O)cc4cc(S(=O)(=O)O)cc(N)c4c3O)c(C)c2)ccc1/N=N/c1c(S(=O)(=O)O)cc2cc(S(=O)(=O)O)cc(N)c2c1O [Trypan Blue] | 500+ nm | –
CCOC(=O)c1ccccc1-c1c2cc(Br)c(=O)c(Br)c-2oc2c(Br)c([O-])c(Br)cc12.[K+] [Ethyl Eosin] | 530-550 nm | –
Nc1c(/N=N/c2ccc(-c3ccc(/N=N/c4cc(S(=O)(=O)O)c5ccccc5c4N)cc3)cc2)cc(S(=O)(=O)O)c2ccccc12 [Congo Red] | 400-560 nm | –
Brilliant Cresyl Blue | 550+ nm | –
CCN(Cc1cccc(S(=O)(=O)O)c1)c1ccc(C(=C2C=CC(=[N+](CC)Cc3cccc(S(=O)(=O)O)c3)C=C2)c2ccc(S(=O)(=O)O)cc2)cc1.[Na+].[Na+] [Light Green SF] | 590+ nm | –
O=S(=O)(O)c1cc(S(=O)(=O)O)c2c(/N=N/c3ccccc3)c(O)ccc2c1 [Orange G] | 450-510 nm | –
Luxol Fast Blue | 500-640 nm | –
O=S(=O)([O-])c1cc(S(=O)(=O)[O-])c2c(N=Nc3ccc(S(=O)(=O)[O-])c4ccccc34)c(O)ccc2c1.[Na+].[Na+].[Na+] [New Coccine] | 506 nm | –
O.O=C([O-])c1ccccc1-c1c2cc(I)c(=O)c(I)c-2oc2c(I)c([O-])c(I)cc12.[Na+].[Na+] [Erythrosin B] | 510-540 nm | –
